Results reported in patent US9328138B2 (priority 2011, dated 2016).

Columns and labels:
[1] = molecular target: T1, HCV genotype 1b (BK) NS3 modified enzyme with a R155K mutation (Hepatitis C virus genotype 1b, UniProt P26663, R1181K); experiment: HCV NS3 protease time-resolved fluorescence (TRF) assay, genotype 1b R155K; format: biochemical; conditions: Ki 1b R155K, genotype 1b (BK) NS3 R155K; single value
T1 construct: HCV genotype 1b (BK) NS3 modified enzyme
Method in brief: (§1)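 IC50 values derive from 4-parameter fitting of TRF signal after a 6 h room-temperature cleavage of 25 nM peptide substrate by NS3/NS4A that had been pre-incubated 10 min with compound.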

[2] = molecular target: HCV NS3 protease genotype 3a (3A-1) (Hepatitis C virus genotype 3a, UniProt Q81258); experiment: HCV NS3 protease time-resolved fluorescence (TRF) assay, genotype 3a; format: biochemical; conditions: Ki 3a
Method in brief: as §1

SMILES | Ki [1] [nM] | Ki [2] [nM]
C=CC1C[C@]1(NC(=O)[C@@H]1C[C@@H]2CN1C(=O)[C@H](C1CCCC1)NC(=O)O[C@@H]1CCC[C@H]1CC/C=C/Cc1c(nc3ccccc3c1OCCN1C(=O)CCC1=O)O2)C(=O)NS(=O)(=O)C1CC1 (stereo partly drawn) [Example 76, (3aR,7S,10S,12R,21E,24a)-7-cyclo pentyl-N-{(1R,2S)-1-[(cyclopropylsulfonyl)carbamoyl]-2-ethenylcyclopropyl}-19-[2-(2,5-dioxopyrrolidin-1-yl)ethoxy]-5,8-dioxo-1,2,3,3a,5,6,7,8,11,12,20,23,24,24a-tetradeca hydro-10H-9,12-methanocyclopenta[18,19][1,10,3,6] dioxadiazacyclononadecino[11,12-b] quinoline-10-carboxamide] | 0.09 | 0.71
C=CC1C[C@]1(NC(=O)[C@@H]1C[C@@H]2CN1C(=O)[C@H](C1CCCC1)NC(=O)O[C@@H]1CCC[C@H]1CC/C=C/Cc1c(nc3ccccc3c1OCCCN(C)C)O2)C(=O)NS(=O)(=O)C1CC1 (stereo partly drawn) [Example 77, (3aR,7S,10S,12R,21E,24aS)-7-cyclo pentyl-N-{(1R,2S)-1-[(cyclopropylsulfonyl)carbamoyl]-2-ethenylcyclopropyl}-19-[3-(dimethylamino)propoxy]-5,8-dioxo-1,2,3,3a,5,6,7,8,11,12,20,23,24, 24a-tetradecahydro-10H-9,12-methano cyclopenta[18,19][1,10,3,6] dioxadiazacyclo-nonadecino[11,12-b]quinoline-10-carboxamide] | 0.09 | 0.72
C=C[C@@H]1C[C@]1(NC(=O)[C@@H]1C[C@@H]2CN1C(=O)[C@H](C1CCCC1)NC(=O)O[C@@H]1CCC[C@H]1CC/C=C/Cc1c(nc3ccccc3c1OCCCN1CCCC1=O)O2)C(=O)NS(=O)(=O)C1CC1 [Example 78, (3aR,7S,10S,12R,21E,24aS)-7-cyclo pentyl-N-{(1R,2S)-1-[(cyclopropylsulfonyl)carbamoyl]-2-ethenylcyclopropyl}-5,8-dioxo-19-[3-(2-oxopyrrolidin-1-yl)propoxy]-1,2,3,3a,5,6,7,8,11,12,20,23,24,24a-tetradecahydro-10H-9,12-methano-cyclopenta[18,19][1,10,3,6]dioxa diazacyclonona decino[11,12-b] quinoline-10-carboxamide] | 0.08 | 0.54
C=C[C@@H]1C[C@]1(NC(=O)[C@@H]1C[C@@H]2CN1C(=O)[C@H](C1CCCC1)NC(=O)O[C@@H]1CCC[C@H]1CC/C=C/Cc1c(nc3ccccc3c1OCCN1CCCC1=O)O2)C(=O)NS(=O)(=O)C1CC1 [Example 79, (3aR,7S,10S,12R,21E,24aS)-7-cyclo pentyl-N-{(1R,2S)-1-[(cyclopropylsulfonyl)carbamoyl]-2-ethenylcyclopropyl}-5,8-dioxo-19-[2-(2-oxopyrrolidin-1-yl)ethoxy]-1,2,3,3a,5,6,7,8,11,12,20,23,24,24a-tetradeca hydro-10H-9,12-methanocyclopenta[18,19][1,10,3,6] dioxadiaza cyclononadecino[11,12-b]quinoline-10-carboxamide] | 0.06 | 1.8
C=CC1C[C@]1(NC(=O)[C@@H]1C[C@@H]2CN1C(=O)[C@H](C1CCCC1)NC(=O)O[C@@H]1CCC[C@H]1CC/C=C/Cc1c(nc3ccccc3c1OCCN1CCCC1)O2)C(=O)NS(=O)(=O)C1CC1 (stereo partly drawn) [Example 80, (3aR,7S,10S,12R,21E,24aS)-7-cyclo pentyl-N-{(1R,2S)-1-[(cyclopropylsulfonyl)carbamoyl]-2-ethenylcyclopropyl}-5,8-dioxo-19-[2-(pyrrolidin-1-yl)ethoxy]-1,2,3,3a,5,6,7,7,8,11,12,20,23,24,24a-tetradecahydro-10H-9,12-methanocyclopenta[18,19] [1,10,3,6]dioxa diazacyclononadecino[11,12-b] quinoline-10-carboxamide] | 0.2 | 2.4
C=CC1C[C@]1(NC(=O)[C@@H]1C[C@@H]2CN1C(=O)[C@H](C1CCCC1)NC(=O)O[C@@H]1CCC[C@H]1CC/C=C/Cc1c(nc3ccccc3c1OCCN1CCCCC1)O2)C(=O)NS(=O)(=O)C1CC1 (some centres unmarked) [Example 81] | 0.29 | 4.6
C=C[C@@H]1C[C@]1(NC(=O)[C@@H]1C[C@@H]2CN1C(=O)[C@H](C1CCCC1)NC(=O)O[C@@H]1CCC[C@H]1CC/C=C/Cc1c(nc3ccccc3c1OCCN(C)C)O2)C(=O)NS(=O)(=O)C1CC1 [Example 82, (3aR,7S,10S,12R,21E,24aS)-7-cyclo pentyl-N-{(1R,2S)-1-[(cyclopropylsulfonyl)carbamoyl]-2-ethenylcyclopropyl}-19-[2-(dimethylamino)ethoxy]-5,8-dioxo-1,2,3,3a,5,6,7,8,11,12,20,23, 24,24a-tetradecahydro-10H-9,12-methanocyclopenta[18,19] [1,10,3,6]dioxadiazacyclononadecino [11,12-b]quinoline-10-carboxamide] | 0.18 | 2.5
C=C[C@@H]1C[C@]1(NC(=O)[C@@H]1C[C@@H]2CN1C(=O)[C@H](C1CCCC1)NC(=O)O[C@@H]1CCC[C@H]1CC/C=C/Cc1c(nc3ccccc3c1OCCCN1CCCC(F)(F)C1)O2)C(=O)NS(=O)(=O)C1(C)CC1 [Example 83, (3aR,7S,10S,12R,21E,24aS)-7-cyclo pentyl-19-[3-(3,3-difluoropiperidin-1-yl)propoxy]-N-[(1R,s)-2-ethenyl-1-{[(1-methylcyclopropyl)sulfonyl]carbamoyl}cyclopropyl]-5,8-dioxo-1,2,3,3a,5,6,7,8,11,12,20,23,24,24a-tetradecahydro-10H-9,12-methanocyclopenta[18,19] [1,10,3,6]dioxadiazacyclononadecino [11,12-b]quinoline-10-carboxamide] | 1.1 | 23
C=C[C@@H]1C[C@]1(NC(=O)[C@@H]1C[C@@H]2CN1C(=O)[C@H](C1CCCC1)NC(=O)O[C@@H]1CCC[C@H]1CC/C=C/Cc1c(nc3ccccc3c1OCCCNC(=O)OC(C)(C)C)O2)C(=O)NS(=O)(=O)C1CC1 [Example 84, tert-butyl (3-{[(3aR,7S,10S,12R,21E,24aS)-7-cyclopentyl-10-({(1R,2S)-1-[(cyclopropylsulfonyl)carbamoyl]-2-ethenylcyclopropyl}carbamoyl)-5,8-dioxo-1,2,3,3a,5,6,7,8,11,12, 20,23,24,24a-tetradecahydro-10H-9,12-methanocyclopenta[18,19][1,10,3,6]dioxadiazacyclononadecino [11,12-b]quinolin-19-yl]oxy}propyl)carbamate] | 0.24 | 7.2
C=CC1C[C@]1(NC(=O)[C@@H]1C[C@@H]2CN1C(=O)[C@H](C1CCCC1)NC(=O)O[C@@H]1CCC[C@H]1CC/C=C/Cc1c(nc3ccccc3c1OCCCN1CCC1)O2)C(=O)NS(=O)(=O)C1(C)CC1 (stereo partly drawn) [Example 85, (3aR,7S,10S,12R,21E,24aS)-19-[3-(azetidin-1-yl)propoxy]-7-cyclopentyl-N-[(1R,2S)-2-ethenyl-1-{[(1-methylcyclopropyl)sulfonyl]carbamoyl}cyclopropyl]-5,8-dioxo-1,2,3,3a,5,6,7,8,11,12,20,23,24,24a-tetra deca hydro-10H-9,12-methanocyclopenta [18,19][1,10,3,6]dioxa-diazacyclononadecino[11,12-b] quinoline-10-carboxamide] | 0.11 | 0.56
C=C[C@@H]1C[C@]1(NC(=O)[C@@H]1C[C@@H]2CN1C(=O)[C@H](C1CCCC1)NC(=O)O[C@@H]1CCC[C@H]1CC/C=C/Cc1c(nc3ccccc3c1OCCN1CC3(CCC3)C1)O2)C(=O)NS(=O)(=O)C1(C)CC1 [Example 86, (3aR,7S,10S,12R,21E,24aS)-19-[2-(2-azaspiro[3.3]hept-2-yl)ethoxy]-7-cyclopentyl-N-[(1R,2S)-2-ethenyl-1-{[(1-methylcyclopropyl)sulfonyl]carbamoyl}cyclopropyl]-5,8-dioxo-1,2,3,3a,5,6,7,8,11,12,20,23,24,24a-tetradecahydro-10H-9,12-methanocyclopenta[18,19] [1,10,3,6]dioxadiazacyclononadecino [11,12-b]quinoline-10-carboxamide] | 0.23 | 4.4
C=C[C@@H]1C[C@]1(NC(=O)[C@@H]1C[C@@H]2CN1C(=O)[C@H](C1CCCC1)NC(=O)O[C@@H]1CCC[C@H]1CC/C=C/Cc1c(nc3ccccc3c1OCCCN1CCOCC1)O2)C(=O)NS(=O)(=O)C1CC1 [Example 87, (3aR,7S,10S,12R,21E,24aS)-7-cyclo pentyl-N-{(1R,2S)-1-[(cyclopropylsulfonyl)carbamoyl]-2-ethenylcyclopropyl}-19-[3-(morpholin-4-yl)propoxy]-5,8-dioxo-1,2,3,3a,5,6,7,8,11,12,20,23,24, 24a-tetradeca hydro-10H-9,12-methano cyclopenta[18,19][1,10,3,6] dioxadiazacyclononadecino [11,12-b]quinoline-10-carboxamide] | 0.24 | 3.2
C=CC1C[C@]1(NC(=O)[C@@H]1C[C@@H]2CN1C(=O)[C@H](C1CCCC1)NC(=O)O[C@@H]1CCC[C@H]1CC/C=C/Cc1c(nc3ccccc3c1OCCCN1CCN(C)CC1)O2)C(=O)NS(=O)(=O)C1CC1 (stereo partly drawn) [Example 88, (3aR,7S,10S,12R,21E,24aS)-7-cyclo pentyl-N-{(1R,2S)-1-[(cyclo-propylsulfonyl)carbamoyl]-2-ethenylcyclopropyl}-19-[3-(4-methylpiperazin-1-yl)propoxy]-5,8-dioxo-1,2,3,3a,5,6,7,8,11,12,20,23,24,24a-tetradecahydro-10H-9,12-methano-cyclopenta[18,19][1,10,3,6]dioxa diazacyclononadecino[11,2-b]quinoline-10-carboxamide] | 0.34 | 4.4
